Biological target: T1, human TLR7 (Homo sapiens, UniProt Q9NYK1)
T1 sequence (Q9NYK1 27-1049): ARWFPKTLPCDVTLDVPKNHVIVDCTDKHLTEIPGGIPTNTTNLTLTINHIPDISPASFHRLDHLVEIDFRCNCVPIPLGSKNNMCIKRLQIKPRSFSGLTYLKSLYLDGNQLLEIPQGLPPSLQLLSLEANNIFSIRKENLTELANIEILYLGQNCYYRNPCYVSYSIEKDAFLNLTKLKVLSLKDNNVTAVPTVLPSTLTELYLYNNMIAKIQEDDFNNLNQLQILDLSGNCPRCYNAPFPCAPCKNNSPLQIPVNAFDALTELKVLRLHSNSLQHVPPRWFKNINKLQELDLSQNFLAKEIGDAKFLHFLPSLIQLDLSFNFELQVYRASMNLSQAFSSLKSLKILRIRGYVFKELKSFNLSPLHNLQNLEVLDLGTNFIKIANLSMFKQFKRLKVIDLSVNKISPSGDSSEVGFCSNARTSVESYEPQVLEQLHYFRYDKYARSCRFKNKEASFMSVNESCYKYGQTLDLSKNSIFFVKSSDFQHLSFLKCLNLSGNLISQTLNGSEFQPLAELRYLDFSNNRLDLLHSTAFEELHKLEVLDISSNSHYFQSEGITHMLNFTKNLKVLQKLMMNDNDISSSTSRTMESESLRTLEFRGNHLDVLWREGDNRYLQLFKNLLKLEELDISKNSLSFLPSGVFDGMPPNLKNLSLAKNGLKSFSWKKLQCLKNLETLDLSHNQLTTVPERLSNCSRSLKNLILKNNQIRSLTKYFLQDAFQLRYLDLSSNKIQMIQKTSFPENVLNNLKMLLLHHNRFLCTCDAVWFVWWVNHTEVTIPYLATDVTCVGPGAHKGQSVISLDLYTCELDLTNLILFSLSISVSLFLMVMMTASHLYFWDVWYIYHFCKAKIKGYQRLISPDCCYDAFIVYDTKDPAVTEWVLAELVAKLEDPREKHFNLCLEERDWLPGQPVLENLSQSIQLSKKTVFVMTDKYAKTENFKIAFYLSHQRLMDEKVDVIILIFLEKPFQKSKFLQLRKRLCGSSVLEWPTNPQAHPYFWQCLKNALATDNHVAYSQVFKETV
Assay: HEK293-Blue-hTLR-7 cells assay (SEAP reporter, R848 stimulation)
Type: cell-based
Conditions: HEK293-Blue-hTLR7 cells, R848 ligand, 20 h incubation
Method: The following tests were carried out in order to determine the activity of the compounds of formula (I) in HEK293-Blue-hTLR-7/8/9 cells assay.
HEK293-Blue-hTLR-7 Cells Assay:
A stable HEK293-Blue-hTLR-7 cell line was purchased from InvivoGen (Cat. #: hkb-htlr7, San Diego, Calif., USA). These cells were originally designed for studying the stimulation of human TLR7 by monitoring the activation of NF-κB. A SEAP (secreted embryonic alkaline phosphatase) reporter gene was placed under the control of the IFN-β minimal promoter fused to five NF-κB and AP-1-binding sites. The SEAP was induced by activating NF-κB and AP-1 via stimulating HEK-Blue hTLR7 cells with TLR7 ligands. Therefore the reporter expression was declined by TLR7 antagonist under the stimulation of a ligand, such as R848 (Resiquimod), for incubation of 20 h. The cell culture supernatant SEAP reporter activity was determined using QUANTI-Blue™ kit (Cat. #: rep-qb1, Invivogen, San Diego, Calif., USA) at a wavelength of 640 nm, a detection medium that turns purple or blue in the presence of alkaline phosphatase.
HEK293-Blue-hTLR7 cells were incubated at a density of 250,000˜450,000 cells/mL in a volume of 170 μL in a 96-well plate in Dulbecco's Modified Eagle's medium (DMEM) containing 4.5 g/L glucose, 50 U/mL penicillin, […], […], 2 mM L-glutamine, 10% (v/v) heat-inactivated fetal bovine serum with addition of 20 μL test compound in a serial dilution in the presence of final DMSO at 1% and 10 μL of 20 uM R848 in above DMEM, perform incubation under 37° C. in a CO2 incubator for 20 h. Then 20 μL of the supernatant from each well was incubated with 180 μL Quanti-blue substrate solution at 37° C. for 2 h and the absorbance was read at 620-655 nm using a spectrophotometer. The signalling pathway that TLR7 activation leads to downstream NF-κB activation has been widely accepted, and therefore similar reporter assay was modified for evaluating TLR7 antagonist.

Row | IC50 [nM] | SMILES
1 | 251 | C[C@@H]1CN(c2ccc(C#N)c3ncccc23)C[C@H](C2=Nc3cccc(C4=CCNCC4)c3CCN2)O1 [Example 16, 5-[(2R,6R)-2-methyl-6-[6-(1,2,3,6-tetrahydropyridin-4-yl)-4,5-dihydro-3H-1,3-benzodiazepin-2-yl]morpholin-4-yl]quinoline-8-carbonitrile]
2 | 362 | C[C@@H]1CN(c2ccc(C#N)c3ncccc23)C[C@H](C2=Nc3ccc(N4CCNCC4)cc3CCN2)O1 [Example 17, 5-[(2R,6R)-2-methyl-6-(7-piperazin-1-yl-4,5-dihydro-3H-1,3-benzodiazepin-2-yl)morpholin-4-yl]quinoline-8-carbonitrile]
3 | 130 | C[C@@H]1CN(c2ccc(C#N)c3ncccc23)C[C@H](C2=Nc3cccc(C4CCNCC4)c3CN2)O1 [Example 18, 5-[(2R,6R)-2-methyl-6-[5-(4-piperidyl)-3,4-dihydroquinazolin-2-yl]morpholin-4-yl]quinoline-8-carbonitrile]

More lines, now with the values behind:

Row | SMILES | IC50 [nM]
4 | C[C@@H]1CN(c2ccc(C#N)c3ncccc23)C[C@H](C2=Nc3cccc(N4CCNCC4)c3CN2)O1 [Example 6, 5-[(2R,6R)-2-methyl-6-(5-piperazin-1-yl-3,4-dihydroquinazolin-2-yl)morpholin-4-yl]quinoline-8-carbonitrile] | 40
5 | C[C@@H]1CN(c2ccc(C#N)c3ncccc23)C[C@H](C2=Nc3ccc(N4CCNCC4)cc3CN2)O1 [Example 7, 5-[(2R,6R)-2-methyl-6-(6-piperazin-1-yl-3,4-dihydroquinazolin-2-yl)morpholin-4-yl]quinoline-8-carbonitrile] | 12
6 | C[C@@H]1CN(c2ccc(C#N)c3ncccc23)C[C@H](C2=Nc3cc(N4CCNCC4)ccc3CN2)O1 [Example 8, 5-[(2R,6R)-2-methyl-6-(7-piperazin-1-yl-3,4-dihydroquinazolin-2-yl)morpholin-4-yl]quinoline-8-carbonitrile] | 18
7 | C[C@@H]1CN(c2ccc(C#N)c3ncccc23)C[C@H](C2=Nc3c(cccc3N3CCNCC3)CN2)O1 [Example 9, 5-[(2R,6R)-2-methyl-6-(8-piperazin-1-yl-3,4-dihydroquinazolin-2-yl)morpholin-4-yl]quinoline-8-carbonitrile] | 36
8 | C[C@@H]1CN(c2ccc(C#N)c3ncccc23)C[C@H](C2=Nc3cccc(N4CCN(C)CC4)c3CN2)O1 [Example 12, 5-[(2R,6R)-2-methyl-6-[5-(4-methylpiperazin-1-yl)-3,4-dihydroquinazolin-2-yl]morpholin-4-yl]quinoline-8-carbonitrile] | 83
9 | C[C@@H]1CN(c2ccc(C#N)c3ncccc23)C[C@H](C2=Nc3cccc(N4CCC5(CCNC5)C4)c3CN2)O1 (stereo partly drawn) [Example 13, 5-[(2R,6R)-2-[5-(2,7-diazaspiro[4.4]nonan-2-yl)-3,4-dihydroquinazolin-2-yl]-6-methyl-morpholin-4-yl]quinoline-8-carbonitrile] | 294
